The values that follow come from patent US20060287528A1, “Novel crystalline forms of a phosphoric acid salt of a dipeptidyl peptidase-iv inhibitor” (priority 2003, published 2006).

Some results are limits rather than exact numbers.

The nature of one data set: Solubility in water. The class given is physicochemical.
A short description of data set [1]: Solid-state stability and interconversion of the crystalline forms. Particulars: for temperature range in which the polymorph is the stable form (enantiotropic transition temperature): Form I / Form III enantiotropic pair, transition about 34° C. The class given is physicochemical.

Broadly, the solubility is the concentration that dissolves in the medium under given conditions. Read a low solubility as a poorly soluble substance. In “Solubility in water”, `N[C@@H](CC(=O)N1CCn2c(nnc2C(F)(F)F)C1)Cc1cc(F)c(F)cc1F` [anhydrate Form I] had a solubility of over 120 mg/mL. The “temperature range in which the polymorph is the stable form (enantiotropic transition temperature)” value in data set [1] is “above 34 °C”.
Turning to `N[C@@H](CC(=O)N1CCn2c(nnc2C(F)(F)F)C1)Cc1cc(F)c(F)cc1F` [anhydrate Form III], in data set [1], the “temperature range in which the polymorph is the stable form (enantiotropic transition temperature)” value is “below 34 °C”.
Turning to `N[C@@H](CC(=O)N1CCn2c(nnc2C(F)(F)F)C1)Cc1cc(F)c(F)cc1F` [desolvated anhydrate Form II], the “time for conversion to anhydrate Form I or Form III or mixtures thereof” value in data set [1] (at about 45° C., form is metastable) was “about 2 h”.
